Among the data in BindingDB's records for doi:10.1021/jm00079a011 (Kanebo, 1992) are IC50 values, retold here.

Each structure is given as a SMILES string.

The test addresses DNA gyrase (Escherichia coli). In words: The inhibitory activity was measured for the supercoiling activity of DNA gyrase isolated from Escherichia coli K-12 C600.
Turning to `NC1CCN(c2c(F)cc3c(=O)c(C(=O)O)c4scc5n4c3c2OC5)C1` (stereo unspecified), the half-inhibitory concentration (IC50) amounted to 666 nM. As for `CN1CCN(c2c(F)cc3c(=O)c(C(=O)O)c4scc5n4c3c2OC5)CC1`, the IC50 came out at 727 nM. `O=C(O)c1c(=O)c2cc(F)c(N3CCC(O)C3)c3c2n2c(csc12)CO3` (stereo unspecified): the concentration for half-maximal inhibition (IC50) stood at 929 nM. The result for `CC1COc2c(N3CCNCC3)c(F)cc3c(=O)c(C(=O)O)cn1c23` (stereo unspecified) reads 1690 nM. The compound `O=C(O)c1c(=O)c2cc(F)c(N3CCNCC3)c3c2n2c(csc12)CO3` showed an IC50 of 452 nM.

Consider `O=C(O)c1c(=O)c2cc(F)c(N3CCCC3)c3c2n2c(csc12)CO3`, for which inhibition was half-maximal at 2580 nM (IC50).

For orientation: IC50 means the concentration needed to halve the response being measured. The low end stands for inhibition by little substance, the high end for a need for much substance.
